The NIST ThermoML archive (doi:10.1016/j.jct.2005.02.003)

Assay: molar heat capacity at constant pressure
Conditions: 101.33 kPa

CC(C)COC(C)(C)C [isobutyl tert-butyl ether]
Conditions	molar heat capacity at constant pressure [J/K/mol]
50.01 K, Crystal	55.57
51.07 K, Crystal	56.57
52.12 K, Crystal	57.81
53.17 K, Crystal	59.02
54.22 K, Crystal	60.27
55 K, Crystal	60.91
55.27 K, Crystal	61.56
56.31 K, Crystal	63.16
57.36 K, Crystal	64.51
58.41 K, Crystal	64.56
59.46 K, Crystal	65.29
60 K, Crystal	66.03
63.63 K, Crystal	70.22
64.68 K, Crystal	70.75
65 K, Crystal	71.08
65.72 K, Crystal	72.16
66.76 K, Crystal	73.11
67.8 K, Crystal	74.04
68.84 K, Crystal	74.44
69.88 K, Crystal	75.46
70 K, Crystal	76.09
70.92 K, Crystal	76.66
71.95 K, Crystal	77.53
74.01 K, Crystal	79.84
75 K, Crystal	81.05
75.04 K, Crystal	81.32
76.07 K, Crystal	82.23
77.1 K, Crystal	83.09
79.16 K, Crystal	85.64
80 K, Crystal	85.97
80.19 K, Crystal	86.55
80.42 K, Glass	91.54
80.56 K, Crystal	86.3
81.22 K, Crystal	87.3
81.39 K, Glass	92.71
82.25 K, Crystal	88.55
82.32 K, Glass	93.45
83.28 K, Crystal	89.21
83.29 K, Glass	95.2
83.57 K, Crystal	89.05
84.28 K, Glass	95.95
85 K, Crystal	90.88
85.22 K, Glass	97.36
86.13 K, Glass	97.2
86.51 K, Crystal	92.54
87.04 K, Glass	98.86
87.51 K, Crystal	93.29
87.98 K, Glass	100.5
88.51 K, Crystal	93.95
88.93 K, Glass	101.4
89.5 K, Crystal	95.12
89.88 K, Glass	102.9
90 K, Crystal	95.78
